Source: PubChem BioAssay AID1963428 (Molecular Pharmacology Branch, DTP, NCI, 2024)

Test system: 171881-019-R-J1-PDC complex spheroid growth, % test/control
Experiment: Anticancer human tumor 171881-019-R-J1-PDC patient-derived invasive breast carcinoma cell line growth inhibition [Asc]
Settings: for IC50: curve of first compound; for viability, T/C: stronger effect = lower value
Procedure, shortened: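 Tumor cells were grown as complex spheroids with human endothelial cells (HUVEC) and human mesenchymal stem cells as stroma. Agents were tested alone and in combination, in half-log steps down from the clinical Cmax, or from 10 microM where Cmax was unknown.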

[1] = second compound 0.03 µM, first compound 0.0316 µM
[2] = second compound 0.03 µM, first compound 0.1 µM
[3] = second compound 0.03 µM, first compound 0.316 µM
[4] = second compound 0.03 µM, first compound 1 µM
[5] = second compound 0.03 µM, first compound 3.16 µM
[6] = second compound 0.03 µM, first compound 10 µM
[7] = second compound 0.0949 µM, first compound 0.0316 µM
[8] = second compound 0.0949 µM, first compound 0.1 µM
[9] = second compound 0.0949 µM, first compound 0.316 µM
[10] = second compound 0.0949 µM, first compound 1 µM
[11] = second compound 0.0949 µM, first compound 3.16 µM
[12] = second compound 0.0949 µM, first compound 10 µM
[13] = second compound 0.3 µM, first compound 0.0316 µM
[14] = second compound 0.3 µM, first compound 0.1 µM
[15] = second compound 0.3 µM, first compound 0.316 µM
[16] = second compound 0.3 µM, first compound 1 µM
[17] = second compound 0.3 µM, first compound 3.16 µM
[18] = second compound 0.3 µM, first compound 10 µM
[19] = second compound 0.949 µM, first compound 0.0316 µM
[20] = second compound 0.949 µM, first compound 0.1 µM
[21] = second compound 0.949 µM, first compound 0.316 µM
[22] = second compound 0.949 µM, first compound 1 µM
[23] = second compound 0.949 µM, first compound 3.16 µM
[24] = second compound 0.949 µM, first compound 10 µM
[25] = second compound 3 µM, first compound 0.0316 µM
[26] = second compound 3 µM, first compound 0.1 µM
[27] = second compound 3 µM, first compound 0.316 µM
[28] = second compound 3 µM, first compound 1 µM
[29] = second compound 3 µM, first compound 3.16 µM
[30] = second compound 3 µM, first compound 10 µM
[31] = second compound 0.03 µM, first compound 0.00316 µM
[32] = second compound 0.03 µM, first compound 0.01 µM
[33] = second compound 0.0949 µM, first compound 0.00316 µM
[34] = second compound 0.0949 µM, first compound 0.01 µM
[35] = second compound 0.3 µM, first compound 0.00316 µM
[36] = second compound 0.3 µM, first compound 0.01 µM
[37] = second compound 0.949 µM, first compound 0.00316 µM
[38] = second compound 0.949 µM, first compound 0.01 µM
[39] = second compound 3 µM, first compound 0.00316 µM
[40] = second compound 3 µM, first compound 0.01 µM
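Wherever viability, T/C is given: spheroids exposed to compounds for 7 days.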

Row | Compound | IC50 (second compound 0.03 µM) | IC50 (second compound 0.0949 µM) | IC50 (second compound 0.3 µM) | IC50 (second compound 0.949 µM) | IC50 (second compound 3 µM) | viability, T/C [1] | viability, T/C [2] | viability, T/C [3] | viability, T/C [4] | viability, T/C [7] | viability, T/C [8] | viability, T/C [9] | viability, T/C [10] | viability, T/C [13] | viability, T/C [14] | viability, T/C [15] | viability, T/C [16] | viability, T/C [19] | viability, T/C [20] | viability, T/C [21] | further results
1 | C#Cc1c(F)ccc2cc(O)cc(-c3ncc4c(N5CC6CCC(C5)N6)nc(OCC56CCCN5CC(F)C6)nc4c3F)c12 (stereo not given) + CCN1C(C(=O)NC23CCC(C(=O)O)(CC2)CC3)C(c2cccc(Cl)c2F)C2(C(=O)Nc3cc(Cl)ccc32)C12CCCCC2 | > 10 µM | > 10 µM | > 10 µM | > 10 µM | > 10 µM | 120% | 116% | 136% | 192% | 117% | 117% | 158% | 208% | 120% | 127% | 127% | 204% | 116% | 123% | 146% | viability, T/C [5]: 204%; viability, T/C [6]: 170%; viability, T/C [11]: 241%; viability, T/C [12]: 211%; viability, T/C [17]: 213%; viability, T/C [18]: 188%; viability, T/C [22]: 229%; viability, T/C [23]: 210%; viability, T/C [24]: 174%; viability, T/C [25]: 125%; viability, T/C [26]: 156%; viability, T/C [27]: 216%; viability, T/C [28]: 218%; viability, T/C [29]: 172%; viability, T/C [30]: 154%
2 | C=C(F)C(=O)N1CCN(c2nc(OCC3CCCN3C)nc3c2CCN(c2cccc4cccc(Cl)c24)C3)CC1CC#N (stereo not given) + CCN1C(C(=O)NC23CCC(C(=O)O)(CC2)CC3)C(c2cccc(Cl)c2F)C2(C(=O)Nc3cc(Cl)ccc32)C12CCCCC2 | 5.96 µM | 5.86 µM | 6.18 µM | 5.79 µM | 6 µM | 107% | 105% | 104% | 110% | 99.9% | 107% | 112% | 108% | 117% | 105% | 112% | 120% | 118% | 120% | 108% | viability, T/C [5]: 122%; viability, T/C [6]: 1.23%; viability, T/C [11]: 110%; viability, T/C [12]: 0.23%; viability, T/C [17]: 141%; viability, T/C [18]: 0.58%; viability, T/C [22]: 111%; viability, T/C [23]: 104%; viability, T/C [24]: 0.88%; viability, T/C [25]: 108%; viability, T/C [26]: 103%; viability, T/C [27]: 107%; viability, T/C [28]: 113%; viability, T/C [29]: 128%; viability, T/C [30]: 0.37%
3 | C=CC(=O)N1CCN(c2nc(=O)n(-c3c(C)ccnc3C(C)C)c3nc(-c4c(O)cccc4F)c(F)cc23)C(C)C1 (stereo not given) + CCN1C(C(=O)NC23CCC(C(=O)O)(CC2)CC3)C(c2cccc(Cl)c2F)C2(C(=O)Nc3cc(Cl)ccc32)C12CCCCC2 | > 10 µM | > 10 µM | > 10 µM | > 10 µM | > 10 µM | 103% | 102% | 100% | 96.8% | 93.5% | 91.7% | 107% | 112% | 116% | 105% | 105% | 109% | 96.5% | 104% | 116% | viability, T/C [5]: 102%; viability, T/C [6]: 103%; viability, T/C [11]: 94.4%; viability, T/C [12]: 109%; viability, T/C [17]: 107%; viability, T/C [18]: 90.7%; viability, T/C [22]: 106%; viability, T/C [23]: 106%; viability, T/C [24]: 116%; viability, T/C [25]: 94.2%; viability, T/C [26]: 112%; viability, T/C [27]: 103%; viability, T/C [28]: 97%; viability, T/C [29]: 99.8%; viability, T/C [30]: 107%
4 | CNC(C)C(=O)NC1CN(S(=O)(=O)c2cccc(S(=O)(=O)N3CCC4CCC(C(=O)NC(c5ccccc5)c5ccccc5)N4C(=O)C(NC(=O)C(C)NC)C3)c2)CCC2CCC(C(=O)NC(c3ccccc3)c3ccccc3)N2C1=O (stereo not given) + CCN1C(C(=O)NC23CCC(C(=O)O)(CC2)CC3)C(c2cccc(Cl)c2F)C2(C(=O)Nc3cc(Cl)ccc32)C12CCCCC2 | > 1 µM | > 1 µM | > 1 µM | > 1 µM | > 1 µM | 99.1% | 93.3% | 93.7% | 93% | 94.5% | 91.7% | 109% | 90.2% | 103% | 109% | 93.5% | 100% | 113% | 88.5% | 109% | viability, T/C [31]: 91.6%; viability, T/C [32]: 103%; viability, T/C [33]: 118%; viability, T/C [34]: 96.8%; viability, T/C [35]: 113%; viability, T/C [36]: 103%; viability, T/C [37]: 109%; viability, T/C [38]: 107%; viability, T/C [22]: 102%; viability, T/C [39]: 102%; viability, T/C [40]: 115%; viability, T/C [25]: 106%; viability, T/C [26]: 90.3%; viability, T/C [27]: 100%; viability, T/C [28]: 96%
5 | COc1c(OCCCN2CCOCC2)ccc2c3n(c(=NC(=O)c4cnc(N)nc4)nc12)CCN3 + CCN1C(C(=O)NC23CCC(C(=O)O)(CC2)CC3)C(c2cccc(Cl)c2F)C2(C(=O)Nc3cc(Cl)ccc32)C12CCCCC2 | 0.0357 µM | 0.0367 µM | 0.0361 µM | 0.0331 µM | 0.0297 µM | 48.1% | 25.7% | 3.58% | 1.48% | 55% | 13.6% | 3.64% | 1.16% | 53.8% | 14.6% | 3.71% | 0.99% | 50.9% | 12.8% | 3.5% | viability, T/C [31]: 158%; viability, T/C [32]: 118%; viability, T/C [33]: 182%; viability, T/C [34]: 141%; viability, T/C [35]: 143%; viability, T/C [36]: 133%; viability, T/C [37]: 159%; viability, T/C [38]: 126%; viability, T/C [22]: 1.21%; viability, T/C [39]: 171%; viability, T/C [40]: 122%; viability, T/C [25]: 46.1%; viability, T/C [26]: 9.69%; viability, T/C [27]: 2.19%; viability, T/C [28]: 1.28%
